Assay results taken from patent US20070077607A1, “Novel screening method” (priority 2003, published 2007).
Where no end group is shown, it is not given here.

What was measured:
HOB cells [1] = assay: Cell adhesion assay (cell attachment and cell spreading), HOB cells; assay type: cell-based, human
Method: To evaluate cell attachment and cell spreading exponentially growing cells were detached from substratum by trypsinisation (0.25% (v/v) trypsin in 5 mM EDTA), collected into medium containing a ˜7% (V/V) final concentration of FCS, washed twice with medium without serum and then plated (2×10^4cells/well) onto FN-coated 96-well plates with and without further immobilisation of tTG. After a maximum of 20-minute incubation (to minimise the effect of any endogenous secreted proteins) at 37° C. in a 5% CO2 atmosphere, cells were fixed in 3.7% (w/v) paraformaldehyde in PBS pH 7.4, permeabilised in 0.1% (v/v) Triton X-100 and stained with May Grunwald and Giemsa stain (Jones et al 1997, Verderio et al. 2000). In some cases cells were pre-treated for 15 hours with 1 mM cycloheximide before plating to rule out any effects of endogenous secreted adhesion molecules. Digital images of three non-overlapping fields covering the central portion of each well was captured using a video digital camera (Olympus DP10) and examined using the Image Analysis programme Scion Image (National Institute of Health, USA). A total of at least nine images of separate fields per sample were examined for a total of at least 900 cells in the FN control. The number of cell particles in each field was measured by thresholding and particle analysis setting a minimum particle size of 50 pixels. Spread cells were analysed and quantified by “density slicing” and particle analysis.
Adhesion of cells to FN was decreased by pre-incubation with RGD synthetic peptide (50 μg/ml, ˜75 ∝M, 100 μg/ml ˜150 μM, or 200 μg/ml ˜300 μM) or function blocking anti-integrin antibodies 40 μg/ml anti-β1 integrin (JB1A), 30 μg/ml anti-α5 integrin (P1D6). Detached cells (as described above) were pre-incubated in suspension (2×10^5cells/ml) in serum-free medium containing either RGD peptide or anti-integrins antibodies at 37° C. for 10 minutes in 5% CO2 atmosphere, and then seeded in the presence of the peptides.

[2] = test system: tTG-null mouse dermal fibroblasts (MDF-TG−/−); assay: Anoikis quantification by TUNEL (flow cytometry and in situ microscopy); assay type: cell-based; settings: RGD peptide, ~15-hour, flow cytometry
Method: (§1) For fluorochrome labelling of DNA strand breaks, 6×10^5 cells were seeded in duplicate in 9.6 cm^2-wells pre-coated with FN or tTG-FN in the presence or absence of RGD peptide. After 15-hour incubation at 37° C. in a 5% CO2 atmosphere, all cells (adhered and non-adhered) were collected, washed twice in PBS pH 7.4, resuspended at the final concentration of 1.2×10^7 cells/ml and fixed in suspension by addition of one volume of 4% (w/v) PFM in PBS, pH 7.4 for 1 hour at room temperature. […] The fluorescence intensity measured by flow cytometry using a Beckman Coulter EPICS XL. Cells were collected and data stored using the SYSTEM II software and analysed using the WinMDI2.8 software. DNA fragmentation was also detected by in situ analysis of nuclei following TUNEL using a confocal fluorescent microscope (Leica). […] For quantification, the Leica LCS software was used to acquire three random images per well for a total of 9 images per experimental sample using a fixed protocol (with constant PMT and section-depth setting). Data are expressed as mean number of apoptotic cells per well. […] Data are expressed as absorbance values at 492 nm after subtraction of values at […] given by the unmetabolised salt.

FAK = FAK tyrosine phosphorylation (western blot, phospho(Tyr397)-FAK); assay type: cell-based, human; settings: HOB; RGD peptide (100 μg/ml)
Method: A cell suspension of 2×10^5 cells/ml was seeded in 9.6 cm^2-wells (6×10^5 cells/well) pre-coated with FN, tTG-FN or heat-inactivated 3% BSA (w/v) in PBS pH 7.4. After 30-minute incubation at 37° C. in a 5% CO2 atmosphere, the supernatant medium was removed, and non-adhered cells collected by spinning at 270 g for 5 minutes and then lysed in reducing Laemmli sample buffer at 95° C. for 5 minutes. The layer of adhered cells was scraped and similarly lysed (200 μl/well). The lysates of adhered and non-adherent cells were pooled together, fractionated (¼ aliquot) on 8% SDS-PAGE and then western blotted. Blots were incubated with a polyclonal rabbit anti-human phospho(Tyr 397)-FAK (1/2000), for ˜15 hours at +4° C. followed by anti-rabbit IgG peroxidase-conjugate (1/2000) for 2 hours at 21° C. Bands were detected by chemi-luminescence (Amersham), following manufacturer instructions. For re-probing with a control antibody, blots were treated with stripping buffer [50 mM Tris.HCl pH 6.7, 100 mM βME, 2% SDS (w/v)] for 30 minutes at 50° C. and then incubated with a monoclonal anti-tubulin antibody (1/2000), followed by peroxidase-conjugate anti-mouse IgGs/(1/1000).

[3] = test system: tTG-null mouse dermal fibroblasts (MDF-TG−/−); assay: Cell viability (XTT) assay; assay type: cell-based; settings: RGD peptide ~15 hours
Method: as §1

[4] = test system: BRIN-BD11 (clonal β-cells); assay: Cell attachment and spreading of BRIN-BD11 cells; assay type: cell-based, rat; settings: excess RGD peptide
Method: A novel insulin-secreting cell line (BRIN-BD11), which was established after electrofusion of RINm5F cells with New England Deaconess Hospital rat pancreatic islet cells, was grown confluent in RPMI 1640 media, supplemented with 10% FCS, 200 u/ml Penicillin, 200 ug/ml Streptomycin and L-Glutamine at 2 mM. The wells of microtitre plates were coated with FN (5 μg/ml) overnight at 4° C. The assigned wells were washed once with 50 mM Tris-HCl, pH 7.4 and then incubated with 20 μg/ml tTG solution (dissolved in PBS containing 2 mM EDTA pH 7.4) for 1 hour at 37° C. Meanwhile, exponentially growing cells were trypsinised and collected into medium containing approximately 7% (v/v) foetal calf serum. After a five-minute centrifugation at 300×g the cell pellet was washed twice in serum free medium to remove the traces of serum proteins. […] The cell attachment and spreading were quantified using the Scion image analysis programme, which is developed at the National Institute of Health (Washington DC, USA). The number of cells per image was assessed through threshold and particle analysis settings with a minimum particle size of 50 pixels. […] These were quantified by density slicing and particle analysis settings. […]

HOB cells [5] = assay type: cell-based, human; settings: FN+RGD
Swiss 3T3 fibroblasts = assay: Cell adhesion assay (cell attachment and cell spreading), Swiss 3T3 fibroblasts; assay type: cell-based, mouse; settings: 100 μg/ml RGD peptide
Method: To evaluate cell attachment and cell spreading exponentially growing cells were detached from substratum by trypsinisation (0.25% (v/v) trypsin in 5 mM EDTA), collected into medium containing a ˜7% (V/V) final concentration of FCS, washed twice with medium without serum and then plated (2×10^4cells/well) onto FN-coated 96-well plates with and without further immobilisation of tTG. After a maximum of 20-minute incubation (to minimise the effect of any endogenous secreted proteins) at 37° C. in a 5% CO2 atmosphere, cells were fixed in 3.7% (w/v) paraformaldehyde in PBS pH 7.4, permeabilised in 0.1% (v/v) Triton X-100 and stained with May Grunwald and Giemsa stain (Jones et al 1997, Verderio et al. 2000). In some cases cells were pre-treated for 15 hours with 1 mM cycloheximide before plating to rule out any effects of endogenous secreted adhesion molecules. Digital images of three non-overlapping fields covering the central portion of each well was captured using a video digital camera (Olympus DP10) and examined using the Image Analysis programme Scion Image (National Institute of Health, USA). […] The number of cell particles in each field was measured by thresholding and particle analysis setting a minimum particle size of 50 pixels. Spread cells were analysed and quantified by “density slicing” and particle analysis. […]

Substance: GRGDTP [RGD peptide, GRGDTP]
- cell spreading on FN (HOB cells [1]; 100 μg/ml RGD peptide): 10-50 % of control value
- cell attachment on FN (HOB cells [1]; 50 and 100 μg/ml RGD peptides): 30-50 % of control values on FN
- inhibition of cell attachment on the 70 kd fragment (HOB cells [1]; RGD peptide (100 μg/ml)): ~40%
- inhibition of cell spreading on the 70 kd fragment (HOB cells [1]; RGD peptide (100 μg/ml)): ~40%
- apoptotic cells among total fibroblasts grown on FN [2]: ~24%
- tyrosine phosphorylation of FAK on FN (FAK): ~25 % of level in control cells on
- decrease of cell viability on FN versus control RAD peptide [3]: around 20%
- cell attachment and spreading on FN [4]: decreased
- actin stress fibre organisation on FN (HOB cells [5]): actin was not organised into stress fibres
- cell attachment on FN (Swiss 3T3 fibroblasts): 30-40 % of controls
- cell spreading on FN (Swiss 3T3 fibroblasts): 30-40 % of controls
